Test system: cynomolgus monkey somatic cell nuclear transfer embryos
Assay: In vitro development of cynomolgus monkey somatic cell nuclear transfer embryos to blastocyst
Type: cell-based, cynomolgus monkey (Macaca fascicularis)
Description: Oocyte denucleation: 15-20 MII stage oocytes were transferred to a glass-bottomed and oil-sealed TH3 working drop containing […], and the position of the oocyte nucleus was observed under the inverted microscope assisted by the spindle imaging system, and the oocyte was fixed with an egg-holding needle and the oocyte nucleus was located at 3 o'clock direction. The Piezo Micromainpulator System was used to drive a flat needle with a diameter of 10 microns to break the zona pellucida, and the oocyte nucleus was removed. After the whole group of oocytes were enucleated, the enucleated oocytes were transferred to HECM-9 medium.
Injection of fibroblasts into enucleated oocytes: 15-20 enucleated oocytes were transferred to an oil-sealed TH3 working drop containing […], and the oocytes were fixed with an egg holding needle, and the polar body was placed at 12 o'clock or 6 o'clock direction. The laser zona pellucida system was used for breaking the zona pellucida to form a narrow slit. An oblique needle with a diameter of 15-18 microns was used for aspirating fibroblasts and transferring the cells to HVJ-E for 10 seconds, and then the cells were removed and injected into the perivitelline space of the enucleated egg cell through the zona pellucida slit, and the somatic cell would fuse into the oocyte in about 10 minutes.
Injection of cumulus cells into enucleated oocytes: 15-20 enucleated oocytes were transferred to an oil-sealed TH3 working drop containing […], and the oocytes were fixed with an egg holding needle, and the polar body was placed at 12 o'clock or at 6 o'clock direction. The laser zona pellucida system was used for breaking the zona pellucida to form a narrow slit. A 10-micron oblique needle was used for aspirating the cumulus cells and transferring the cells to HVJ-E to soak for 10 seconds, then the cells were removed and injected into the 9 o'clock position of the enucleated egg cell through the zona pellucida slit, and the somatic cell would fuse into the oocyte in about 10 minutes.
In vitro activation of nuclear transfer embryos: Embryo activation can be performed 1-1.5 hours after the fusion of somatic cells and enucleated oocytes. The embryos were transferred to TH3 containing 5 μM ionomycin for 5 minutes, then transferred to HECM-9 medium containing 2 mM 6-DMAP and 10 nM TSA for 5 hours, then transferred to HECM-9 containing 10 nM TSA and cultured for 5 hours, and finally transferred to HECM-9 medium for culture.
Kdm4d mRNA injection: 5-6 hours after embryo activation, the activated embryo was transferred to an oil-sealed TH3 working drop containing 5 μg/ml CB, the embryo was fixed with an egg-holding needle, and the Piezo Micromainpulator System was used to drive a flat injection needle with a diameter of 2-3 microns to break the zona pellucida and penetrate deep into the embryo. The embryo cell membrane was broken and 1000 ng/μl of Kdm4d mRNA was injected into the embryo, and each embryo was injected about 10 pl. After the injection, the embryos were transferred to HECM-9 medium and cultured at 37° C. and 5% CO2.
Embryo culture: cloned embryos were cultured in HECM-9 medium, and then transferred to HECM-9 medium containing 5% FBS at the 8-cell stage, and the medium was changed every other day until blastocysts were appeared on day 7-8.

Molecule | effect on improving the efficiency of monkey somatic cell nuclear transfer embryos | blastocyst rate (20 injected embryos) | blastocysts obtained (number) (of 20 injected monkey somatic cell nuclear transfer embryos) | embryos developed to the blastocyst stage (blastocysts/embryos) (SCNT embryos cultured in vitro, TSA 10 nM, 10 h during and after activation) | blastocysts that had inner cell masses (out of 5 blastocysts, TSA 10 nM, 10 h)
Kdm5b: H3K4me3 demethylase injected into monkey somatic cell nuclear transfer embryos | no significant effect | 10% | 2 | – | –
CC(/C=C/C(=O)NO)=C\[C@@H](C)C(=O)c1ccc(N(C)C)cc1 [TSA, Trichostatin, reference compound] | – | – | – | 5/31 | 2

Reference: patent publication US12091676B2, “Method for preparing non-human primate somatic cell cloned animal” (CENTER FOR EXCELLENCE IN BRAIN SCIENCE AND INTELLIGENCE …, priority 2018, dated 2024)
